Experimental data: patent publication US6384080B1, “Anthranilic acid derivatives as inhibitors of the cGMP-phosphodiesterase” (Fujisawa Pharmaceutical Co., Ltd., priority 1998, dated 2002)
Where a name gives a salt, the structure may show the parent alone.

Target: T1, human platelet PDE-V (Homo sapiens, UniProt O76074)
T1 construct: Human platelet cGMP-PDE was separated from other isozymes in human platelets; from tissue; host or cells: human platelets
Assay: cGMP-Phosphodiesterase (PDE) assay, enzymatic inhibitory test
Type: biochemical
Conditions: not given
Procedure: cGMP-Phosphodiesterase (PDE) Assay
Human platelet cGMP-PDE was separated from other isozymes in human platelets by a modification of the method of Thompson et. al. (see Cyclic Nucleotide Phosphodiesterase (PDE), in Methods of Enzymatic analysis, Vol 4, p127-234, 1984). In enzyme inhibition assays, the test compounds were dissolved in DMSO and then diluted with assay buffer (50 mM Tris-HCl, 0.077 mg/ml dithiothreitol and 10 mg/ml snake venom, 1 mM EGTA, pH 8.0), at final concentrations ranging from 10^−10 to 10^−6 M. Assays were performed at 0.1 μM substrate ([^3H]-cGMP) concentration, at 30° C. for 10 minutes using enzyme dilutions which gave 10-20% hydrolysis of substrate. Each assay was initiated by addition of substrate and terminated by addition of anion exchange resin (Dowex® 1-X8, 250 mg/mg) followed by centrifugation for 10 minutes (3000 rpm, at 4° C.). Radioactivity of supernatant (^3H-GMP) was assayed by liquid scintillation counting.

| Compound | IC50 [nM] |
| --- | --- |
| O=C(NCc1ccc([N+](=O)[O-])cc1)c1cc([N+](=O)[O-])ccc1NC1CCCC1 [2-(Cyclopentylamino)-5-nitro-N-(4-nitrobenzyl)benzamide] | < 10 |
| O=C(NCc1ccc2c(c1)OCO2)c1cc([N+](=O)[O-])ccc1NC(CCl)CCl [2-[2-Chloro-1-(chloromethyl)ethylamino]-5-nitro-N-(1,3-benzodioxol-5-ylmethyl)benzamide] | < 10 |

Same assay, conditions: human platelet PDE-V; 0.1 μM [3H]-cGMP substrate, 30° C., 10 minutes; read-out: Inhibitory activity IC50

| Compound | IC50 [nM] |
| --- | --- |
| NC(=O)C1CCC(Nc2ccc([N+](=O)[O-])cc2C(=O)NCc2ccc3c(c2)OCO3)CC1 (centres unmarked) [2-(4-carbamoylcyclohexylamino)-5-nitro-N-(1,3-benzodioxol-5-ylmethyl)benzamide] | < 10 |
| O=C(NCc1ccc(C(F)(F)F)cc1)c1cc([N+](=O)[O-])ccc1NC1CCCC1 [2-(Cyclopentylamino)-5-nitro-N-[4-(trifluoromethyl)benzyl]benzamide] | < 10 |
| O=C(NCc1ccc(Cl)cc1Cl)c1cc([N+](=O)[O-])ccc1NC1CCCC1 [2-(Cyclopentylamino)-N-(2,4-dichlorobenzyl)-5-nitrobenzamide] | < 10 |
| COc1cc(CNC(=O)c2cc([N+](=O)[O-])ccc2NC2CCCC2)ccc1O [2-(Cyclopentylamino)-N-(4-hydroxy-3-methoxybenzyl)-5-nitrobenzamide] | < 10 |
| Cc1ccc(CNC(=O)c2cc([N+](=O)[O-])ccc2NC2CCCC2)cc1 [2-(Cyclopentylamino)-N-(4-methylbenzyl)-5-nitrobenzamide] | < 10 |
| CCCCCCNC(=O)c1cc([N+](=O)[O-])ccc1NC1CCCC1 [2-(Cyclopentylamino)-N-hexyl-5-nitrobenzamide] | < 10 |
| O=C(NCc1ccc2c(c1)OCO2)c1cc([N+](=O)[O-])ccc1N[C@H]1CC[C@@H](Cl)CC1 [2-(cis-4-chlorocyclohexylamino)-5-nitro-N-(1,3-benzodioxol-5-ylmethyl)benzamide] | < 10 |
| CC(C)(C)Nc1ccc([N+](=O)[O-])cc1C(=O)NCc1ccc2c(c1)OCO2 [2-(tert-Butylamino)-5-nitro-N-(1,3-benzodioxol-5-ylmethyl)benzamide] | < 10 |
| CSc1ccc(CNC(=O)c2cc([N+](=O)[O-])ccc2N[C@H]2CC[C@H](O)CC2)cc1 [2-(trans-4-Hydroxycyclohexyl)amino-N-[4-(methylthio)benzy]-5-nitrobenzamide] | < 10 |
| CCOC(=O)N1CCC(Nc2ccc([N+](=O)[O-])cc2C(=O)NCc2ccc3c(c2)OCO3)CC1 [2-[1-(Ethoxycarbonyl)piperidin-4-ylamino]-5-nitro-N-(1,3-benzodioxol-5-ylmethyl)benzamide] | < 10 |
| CC(C)(C)OC(=O)N1CCC(Nc2ccc([N+](=O)[O-])cc2C(=O)NCc2ccc3c(c2)OCO3)CC1 [2-[1-(tert-Butoxycarbonyl)-4-piperidinylamino]-5-nitro-N-(1,3-benzodioxol-5-ylmethyl)benzamide] | < 10 |
| COc1ccc(CNC(=O)c2cc([N+](=O)[O-])ccc2NC2CCN(C(=O)OC(C)(C)C)CC2)cc1OC [2-[1-(tert-Butoxycarbonyl)piperidin-4-ylamino]-N-(3,4-dimethoxybenzyl)-5-nitrobenzamide] | < 10 |
| COc1ccc(CNC(=O)c2cc([N+](=O)[O-])ccc2NC2CCN(C(=NC(=O)OC(C)(C)C)NC(=O)OC(C)(C)C)CC2)cc1OC [2-[1-[1,3-Bis(tert-butoxycarbonyl)amidino]piperidin-4-ylamino]-N-(3,4-dimethoxybenzyl)-5-nitrobenzamide] | < 10 |
| C[C@@H](O)[C@@H](CO)Nc1ccc([N+](=O)[O-])cc1C(=O)NCc1ccc2c(c1)OCO2 [2-[(1R, 2R)-2-Hydroxy-1-(hydroxymethyl)propylamino]-5-nitro-N-(1,3-benzodioxol-5-ylmethyl)benzamide] | < 10 |
| COc1ccc(CNC(=O)c2cc([N+](=O)[O-])ccc2N[C@H]2CC[C@H](NC(=NC(=O)OC(C)(C)C)NC(=O)OC(C)(C)C)CC2)cc1OC [2-{trans-4-[2,3-bis(tert-butoxycarbonyl)guanidino]cyclohexylamino}-N-(3,4-dimethoxybenzyl)-5-nitrobenzamide] | < 10 |

The next lines start with the values.

| IC50 [nM] | Compound |
| --- | --- |
| < 10 | O=C(NCc1ccccc1)c1cc([N+](=O)[O-])ccc1N[C@@H]1CCC[C@H]1O (relative stereo) [N-Benzyl-2-(trans-2-hydroxycyclopentylamino)-5-nitrobenzamide] |
| < 10 | O=C(NCc1ccc2c(c1)OCO2)c1cc([N+](=O)[O-])ccc1NC1CCS(=O)(=O)CC1 [2-(1,1-dioxotetrahydro-2H-thiopyran-4-ylamino)-5-nitro-N-(1,3-benzodioxol-5-ylmethyl)benzamide] |
| < 10 | COc1ccc(CNC(=O)c2cc([N+](=O)[O-])ccc2NC2CCN(C(=N)N)CC2)cc1OC [2-(1-Amidinopiperidin-4-ylamino)-N-(3,4-dimethoxybenzyl)-5-nitrobenzamide hydrochloride] |
| < 10 | O=C(NCc1ccc2c(c1)OCO2)c1cc([N+](=O)[O-])ccc1NC1CCN(Cc2ccccc2)CC1 [2-(1-Benzylpiperidin-4-ylamino)-5-nitro-N-(1,3-benzodioxol-5-ylmethyl)benzamide] |
| < 10 | O=CN1CCC(Nc2ccc([N+](=O)[O-])cc2C(=O)NCc2ccc3c(c2)OCO3)CC1 [2-(1-Formyl-4-piperidinylamino)-5-nitro-N-(1,3-benzodioxol-5-ylmethyl)benzamide] |
| < 10 | CC(=O)N1CCC(Nc2ccc([N+](=O)[O-])cc2C(=O)NCc2ccc3c(c2)OCO3)CC1 [2-(1-acetyl-4-piperidinylamino)-5-nitro-N-(1,3-benzodioxol-5-ylmethyl)benzamide] |
| < 10 | CN1CCC(Nc2ccc([N+](=O)[O-])cc2C(=O)NCc2ccc3c(c2)OCO3)CC1 [2-(1-methyl-4-piperidinylamino)-5-nitro-N-(1,3-benzodioxol-5-ylmethyl)benzamide] |
| < 10 | O=C(NCc1ccc2c(c1)OCO2)c1cc([N+](=O)[O-])ccc1NC1CCC(C(=O)O)CC1 (centres unmarked) [2-(4-carboxycyclohexylamino)-5-nitro-N-(1,3-benzodioxol-5-ylmethyl)benzamide] |
| < 10 | O=C(NCc1cccs1)c1cc([N+](=O)[O-])ccc1NC1CCCC1 [2-(Cyclopentylamino)-5-nitro-N-(2-thienylmethyl)benzamide] |
| < 10 | O=C(NCCCc1ccccc1)c1cc([N+](=O)[O-])ccc1NC1CCCC1 [2-(Cyclopentylamino)-5-nitro-N-(3-phenylpropyl)benzamide] |
| < 10 | O=C(NCCc1ccccc1)c1cc([N+](=O)[O-])ccc1NC1CCCC1 [2-(Cyclopentylamino)-5-nitro-N-phenethylbenzamide] |
| < 10 | O=C(NCc1ccc(Cl)c(Cl)c1)c1cc([N+](=O)[O-])ccc1NC1CCCC1 [2-(Cyclopentylamino)-N-(3,4-dichlorobenzyl)-5-nitrobenzamide] |
| < 10 | O=C(NCc1ccc(F)c(F)c1)c1cc([N+](=O)[O-])ccc1NC1CCCC1 [2-(Cyclopentylamino)-N-(3,4-difluorobenzyl)-5-nitrobenzamide] |
| < 10 | O=C(NCc1ccc(F)cc1)c1cc([N+](=O)[O-])ccc1NC1CCCC1 [2-(Cyclopentylamino)-N-(4-fluorobenzyl)-5-nitrobenzamide] |
| < 10 | COc1ccc(CNC(=O)c2cc([N+](=O)[O-])ccc2NC2CCCC2)cc1 [2-(Cyclopentylamino)-N-(4-methoxybenzyl)-5-nitrobenzamide] |
| < 10 | O=C(NCc1ccco1)c1cc([N+](=O)[O-])ccc1NC1CCCC1 [2-(Cyclopentylamino)-N-furfuryl-5-nitrobenzamide] |
| < 10 | COc1ccc(CNC(=O)c2cc([N+](=O)[O-])ccc2N[C@H]2CC[C@@H](NC=O)CC2)cc1OC [2-(cis-4-Formamidocyclohexylamino)-N-(3,4-dimethoxybenzyl)-5-nitrobenzamide] |
| < 10 | COCCOc1ccc(CNC(=O)c2cc([N+](=O)[O-])ccc2N[C@H]2CC[C@@H](O)CC2)cc1OC [2-(cis-4-Hydroxycyclohexylamino)-N-[3-methoxy-4-(2-methoxyethoxy)benzyl]-5-nitrobenzamide] |
| < 10 | O=C(NCc1ccc2c(c1)OCO2)c1cc([N+](=O)[O-])ccc1NC1(CO)CCCC1 [2-[1-(Hydroxymethyl)cyclopentylamino]-5-nitro-N-(1,3-benzodioxol-5-ylmethyl)benzamide] |
| < 10 | COc1cc(CNC(=O)c2cc([N+](=O)[O-])ccc2NC(CO)CO)ccc1C [2-[2-Hydroxy-1-hydroxymethyl)ethylamino]-N-(3-methoxy-4-methylbenzyl)-5-nitrobenzamide] |
| < 10 | O=C(OC1CCC(Nc2ccc([N+](=O)[O-])cc2C(=O)NCc2ccccc2)C1)c1ccccc1 (centres unmarked) [2-[3-(Benzoyloxy)cyclopentylamino]-N-benzyl-5-nitrobenzamide] |
| < 10 | COC(=O)C1CCC(Nc2ccc([N+](=O)[O-])cc2C(=O)NCc2ccc3c(c2)OCO3)CC1 (centres unmarked) [2-[4-(Methoxycarbonyl)cyclohexylamino]-5-nitro-N-(1,3-benzodioxol-5-ylmethyl)benzamide] |
| < 10 | COc1ccc(CNC(=O)c2cc([N+](=O)[O-])ccc2N[C@H](C(N)=O)[C@@H](C)O)cc1OC [2-[(1S, 2R)-1-(Carbamoyl)-2-hydroxypropylamino]-N-(3,4-dimethoxybenzyl)-5-nitrobenzamide] |
| < 10 | COc1ccc(CNC(=O)c2cc([N+](=O)[O-])ccc2N[C@H]2CC[C@H](N)CC2)cc1OC [2-[(trans-4-Aminocyclohexyl)amino]-N-(3,4-dimethoxybenzyl)-5-nitrobenzamide] |
